Assay [1] has as its system STZ-induced diabetic rats. The arrangement: method as in PMID 20506690. The following applies: oral administration for 45 days, 100 mg/kg bw; cited from earlier work.
Assay [2] has as its system STZ-induced diabetic rats. Details: method as in PMID 21433280. The note with it: 4 days of ad libitum consumption; cited from earlier work.
Assay [3] deals with high-fat diet model-STZ-induced rats. The arrangement: method as in doi:10.1016/j.bionut.2014.03.006. The note with it: consumption for 30 days; cited from earlier work.
The subject of the next assay is ALR-2. Details: method as in earlier work. The following applies: read-out: ALR2 IC50; cited from earlier work.
The target in assay [4] is T1, fructose-1,6-bisphosphatase (FBPase) (Rattus norvegicus, UniProt P19112).
T1 construct: Enzymatic activity started by adding rat liver cytosolic supernatant diluted 9:1; from tissue; host or cells: rat liver cytosolic supernatant
T1 sequence (P19112 2-363 limits assumed): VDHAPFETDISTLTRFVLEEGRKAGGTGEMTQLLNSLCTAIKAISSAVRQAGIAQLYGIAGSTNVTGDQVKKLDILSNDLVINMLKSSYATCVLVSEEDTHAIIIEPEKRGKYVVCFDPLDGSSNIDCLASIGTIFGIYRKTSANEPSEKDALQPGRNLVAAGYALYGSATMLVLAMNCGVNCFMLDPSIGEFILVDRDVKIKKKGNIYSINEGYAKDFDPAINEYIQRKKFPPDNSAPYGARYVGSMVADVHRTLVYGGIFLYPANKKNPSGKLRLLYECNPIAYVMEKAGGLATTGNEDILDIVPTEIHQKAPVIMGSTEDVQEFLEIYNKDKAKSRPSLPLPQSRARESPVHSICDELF
Put plainly: Inhibition assay of fructose-1,6-bisphosphatase (FBPase). The class given is biochemical. The note with it: rat liver cytosolic supernatant; for IC50: mean ± SEM of two assays in duplicate. The procedure:
Buffer (5 μM EDTA, 5 mM MgCl2, 50 mM Tris-HCl, pH 7.2) enriched with 0.1 mM of fructose-1,6-bisphosphate was added and incubated for 5 min with different concentrations of inhibitor or samples (adenosine 5′-monophosphate or compounds) in reaction mixtures of 1 mL. Enzymatic activity started by adding rat liver cytosolic supernatant diluted 9:1 and, 15 min later, ended with the addition of a color reagent previously prepared by mixing 1 volume of 7.5% ammonium molybdate and 0.17% TWEEN 20 with 4 volumes of stock solution (0.12% malachite green in 5 volumes of water with 1 volume of H2SO4). Finally, the reaction mixtures were incubated for 10 min at room temperature and measured at 630 nm.

The next assay relates to ALR-1. Details: method as in earlier work. The note with it: read-out: ALR1 IC50; cited from earlier work.
For assay [5], the target named is T2, glucose-6-phosphatase (G6Pase) (Rattus norvegicus, UniProt P43428).
T2 sequence (P43428 1-357): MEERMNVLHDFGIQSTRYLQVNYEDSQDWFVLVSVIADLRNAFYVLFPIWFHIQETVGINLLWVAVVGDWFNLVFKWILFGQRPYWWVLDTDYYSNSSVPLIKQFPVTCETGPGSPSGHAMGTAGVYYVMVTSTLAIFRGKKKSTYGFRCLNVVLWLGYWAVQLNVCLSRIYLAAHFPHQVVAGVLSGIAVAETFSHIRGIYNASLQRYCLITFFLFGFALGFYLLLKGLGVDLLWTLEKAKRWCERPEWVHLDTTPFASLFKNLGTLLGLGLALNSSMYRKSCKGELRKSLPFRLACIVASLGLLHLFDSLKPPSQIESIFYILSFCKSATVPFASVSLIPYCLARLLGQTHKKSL
The assay is described as follows: Inhibition assay of glucose-6-phosphatase (G6Pase). The class given is biochemical. The following applies: rat liver microsomal fractions. As for the experimental part: Rat liver microsomal fractions isolated through differential centrifugation were diluted 1:1 in buffer (40 mM imidazole, 250 mM sucrose, pH 7) and added to reaction mixtures, containing buffer and different concentrations of inhibitor samples (chlorogenic acid or compounds). Enzymatic activity started by adding 20 mM of glucose-6-phosphate (G6P). Next, the mixtures were incubated at 22 °C for 20 min and ended with the addition of 900 μL of a solution of 0.42% ammonium molybdate in 1 N H2SO4, 10% SDS, and 10% ascorbic acid. Finally, they were incubated at 45 °C for 20 min and measured at 830 nm.

The next assay addresses α-amylase. The arrangement: method as in PMID 24825096. The following applies: cited from earlier work.
A further assay concerns the target α-glucosidase. Details: method as in PMID 24825096. The note with it: cited from earlier work.
Another assay relates to db/db mouse. Details: method as in PMID 16644902. The note with it: treated for 5 weeks; cited from earlier work.

The term IC50 denotes the midpoint of a concentration-inhibition curve.

Regarding `O=C(O)c1ccc(O)c(O)c1` [protocatechuic acid (3), protocatechuic acid], in assay [1], the plasma glucose entry was “decrease in plasma glucose” and the plasma insulin entry is “increase in plasma insulin”.

As to `O=C(/C=C/c1ccc(O)c(O)c1)O[C@H](Cc1ccc(O)c(O)c1)C(=O)O` [rosmarinic acid (2), rosmarinic acid], the blood glucose levels result in assay [2] is recorded as “blood glucose levels were decreased”. Besides, in assay [3], the blood glucose levels entry is given as “decrease in blood glucose levels” and the plasma insulin result is given as “increase in plasma insulin”.

As to `O=C1NC(=O)[C@@]2(CCOc3ccc(F)cc32)N1` [sorbinil], in the assay with ALR-2, the IC50 was 3.14 ± 0.02 µM.

`Nc1ncnc2c1ncn2[C@@H]1O[C@H](COP(=O)(O)O)[C@@H](O)[C@H]1O` [Adenosine 5′-monophosphate, reference compound] showed an IC50 in [4] of 48.7 µM.

In the case of `CCCC(CCC)C(=O)O` [valproic acid], in the assay with ALR-1, the IC50 is 57.4 ± 0.89 µM.

Regarding `O=C(/C=C/c1ccc(O)cc1)OC[C@H]1O[C@@H](Oc2c(-c3ccc(O)cc3)oc3cc(O)cc(O)c3c2=O)[C@H](OC(=O)/C=C/c2ccc(O)cc2)[C@@H](O)[C@@H]1O` [kaempferol-3-O-(2,6-di-O-trans-ρ-coumaryl)-β-D-glucopyranoside], in assay [4], the “inhibition over FBPase (in words)” value is “important inhibition” and the IC50 is 70.9 µM. Further, the “inhibition over G6Pase (in words)” value in assay [5] is reported as “important inhibition”.

Turning to `O=C(O)/C=C/c1ccc(O)c(O)c1` [Caffeic acid (4), caffeic acid], the “inhibition over FBPase (in words)” value in assay [4] is recorded as “no inhibition”. In addition, the “inhibition over G6Pase (in words)” value in [5] is “modest inhibition”. For the same molecule, the “α-amylase IC50” value on α-amylase is 3.68 µg/mL. The “α-glucosidase IC50” value at α-glucosidase is 4.98 µg/mL. Also, in the assay on db/db mouse, the blood insulin levels entry is given as “blood insulin levels increased” and the plasma glucose levels result was “plasma glucose levels decreased”.
